The values below come from ChEMBL document CHEMBL3507680, “University of Dundee, Gates Library screen for HepG2 cell viability”.

The nature of the data set: Human HepG2 cell viability assay in 384 well format. The class given is toxicity, cell-based. The arrangement: dose 125 nL, time 70.5 hour; concentration not given beside the values. The settings on record: HepG2 cells, read-out: Inhibition.
`CCN1CCC(N2CCN(C)C3(CCC(=O)N(CCOC)CC3)C2)CC1` (stereo unspecified): the cytotoxicity at 70.5 h is -9.42%.

For the compound `O=S(=O)(NCCc1ccccc1F)N1CCOCC1`, the cytotoxicity at 70.5 h is -3.51%.

Regarding `CCC(C)N(Cc1ccncc1)C(=O)CCC(=O)OC` (stereo unspecified), the cytotoxicity at 70.5 h is 4.04%.

As to `O=C(CCC1CCCC1)N1CCCC(c2ncc3c(n2)CCNC3)C1` (stereo unspecified), the cytotoxicity at 70.5 h is -1.37%. For the compound `Cc1cc(C2CCCN2C(=O)c2cc3c(s2)CCC3)no1` (stereo unspecified), the cytotoxicity at 70.5 h was -0.925%. As to `CCc1cc(NCCNc2cccnc2)n2nccc2n1`, the cytotoxicity at 70.5 h is -7.64%.

As to `CCOCC(O)CN1CCN(C(=O)c2ccc(OC)cc2F)CC1` (stereo unspecified), the cytotoxicity at 70.5 h was -21.8%. Consider `CC(c1ccc(S(C)(=O)=O)cc1)N(C)C(=O)c1ccccc1I` (stereo unspecified), for which the cytotoxicity at 70.5 h was -4.13%.

For the compound `CN1C(=O)CC(C(=O)O)C12CCN(Cc1ccc(Cl)c(Cl)c1)CC2` (stereo unspecified), the cytotoxicity at 70.5 h is -7.82%. With `Cc1cc(C)n(C2CN(CC(=O)N(C)Cc3ccc(C)o3)C2)n1`, the cytotoxicity at 70.5 h is -9.43%.

With `Cc1ccc(CN2CC(C(=O)N3CCCC3)C3(CCOCC3)C2)s1` (stereo unspecified), the cytotoxicity at 70.5 h is -9.91%. The value for `Cn1cc(CN2CCCn3cnc(COCC4CC4)c3C2)cn1` was -12.6%.

Regarding `Cn1c(CCNC(=O)C2CCCN(C3CCOCC3)C2)n[nH]c1=O` (stereo unspecified), the cytotoxicity at 70.5 h was -1.23%. As to `O=C(C1CC=CC1)N1CCC2(CCC(=O)N2Cc2cccc(F)c2)CC1`, the cytotoxicity at 70.5 h amounted to 2.09%. The value for `NC(=O)N1CC[C@H]2CO[C@H](CNC(=O)c3ccnnc3)[C@H]2C1` was -0.828%.

Turning to `CN(C)C(=O)N1Cc2nnn(C)c2C(COCc2cccnc2)C1` (stereo unspecified), the cytotoxicity at 70.5 h is -2.6%.

Turning to `CSCC(=O)NC1CC(=O)N(CCc2ccccc2)C1` (stereo unspecified), the cytotoxicity at 70.5 h was -10.9%. Consider `O=C1N(CC2CC2)CCCC1(O)CN1CCc2[nH]ncc2C1` (stereo unspecified), for which the cytotoxicity at 70.5 h is -4.29%. Consider `CS(=O)(=O)NC1CCCN(C(=O)NCc2ccoc2)C1` (stereo unspecified), for which the cytotoxicity at 70.5 h came out at 0.0228%. The value for `CCOC(=O)N1CCN(C(=O)C(C)n2ccnc2C(C)C)CC1` (stereo unspecified) was 8.16%; that for `COc1ccc(-c2nc(CN3CC(n4cccn4)C3)no2)cc1` was -5.24%. As for `CC(CNC(=O)N1CCN(Cc2ccon2)CC1)Cc1cccs1` (stereo unspecified), the cytotoxicity at 70.5 h was -2.44%.

On to `CNC(=O)c1cn[nH]c1C1CCN(Cc2sccc2C)C1` (stereo unspecified), for which the cytotoxicity at 70.5 h is -5.33%. The value for `COCC(=O)N1CCCC1c1cccc(C)c1C` (stereo unspecified) was 4.58%; that for `COCc1cccc(C(=O)N(C)Cc2ncc(C)c(OC)c2C)c1` was -8.49%; that for `CCc1nnc2n1CCN(C(=O)COCCc1ccccc1)C2` was -14.7%. With `Cc1cc(C)cc(CNCCS(=O)(=O)N2CCOCC2)c1`, the cytotoxicity at 70.5 h turned out to be 33.6%. As to `CC(C)(C)c1cn(C2CCN(C(=O)c3cnccn3)CC2)nn1`, the cytotoxicity at 70.5 h was -13.1%. Turning to `CC(=O)N1CCC(N[C@@H]2CC[C@@H]2NS(=O)(=O)c2cccnc2)CC1`, the cytotoxicity at 70.5 h was 2.57%. As to `CC(C)COCCCNC(=O)NCC(O)c1cccc(F)c1` (stereo unspecified), the cytotoxicity at 70.5 h is -0.106%. `Cc1ccc(OCc2occc2C(=O)O)cc1`: the cytotoxicity at 70.5 h is -5.9%. For the compound `Cc1ccc(C(NC(=O)C2CC2)c2cccc(S(C)(=O)=O)c2)cc1` (stereo unspecified), the cytotoxicity at 70.5 h was -4.47%.

Turning to `Cc1ccc(S(C)(=O)=O)cc1C(=O)NS(=O)(=O)c1cccs1`, the cytotoxicity at 70.5 h is -5.12%. Take `Cc1nc(CN2CCCC(NCc3ccc4ccccc4c3)C2)no1` (stereo unspecified): the cytotoxicity at 70.5 h was -6.48%. For `OC(COc1ccc2c(c1)OCO2)CN1CC(n2cccn2)C1` (stereo unspecified), the cytotoxicity at 70.5 h was -3.37%. On to `O=C(N1CCCO1)[C@]12COC[C@H]1CN(Cc1nccs1)C2`, for which the cytotoxicity at 70.5 h was -7.21%. As for `CC(=O)N1N=C(COc2ccc(Cl)cc2)OC1c1ccccc1` (stereo unspecified), the cytotoxicity at 70.5 h turned out to be 17%. `Cc1c(Cn2ccnc2-c2cc(CN(C)C)cs2)cnn1C`: the cytotoxicity at 70.5 h came to 3.72%. In the case of `CS(=O)(=O)Nc1ccn(Cc2ccc(Cl)cc2)n1`, the cytotoxicity at 70.5 h turned out to be 10.5%. `COc1cc(C(=O)N2C[C@H]3CC[C@@H]2CN(Cc2cscn2)C3)ccn1`: the cytotoxicity at 70.5 h was -22.3%. The value for `COc1cccc2c1OCC(CNC(=O)Cc1csc(C(C)=O)c1)C2` (stereo unspecified) was 14.4%; that for `CCCn1nccc1NC(=O)c1ccc(Cl)c(N2CCNC2=O)c1` was -2.55%; that for `COc1cccc2c1OCC(C(=O)N1CCN(C3CCSCC3)CC1)C2` (stereo unspecified) was -7.23%. For the compound `Cc1nnc(SC2CCc3ccccc3NC2=O)n1C` (stereo unspecified), the cytotoxicity at 70.5 h is -23%.

As to `c1cnc(N2CCO[C@H]3[C@H](OCC4CCOCC4)CC[C@@H]32)nc1`, the cytotoxicity at 70.5 h was -10.9%. For the compound `Cc1ccc(CC(=O)NC(C)C(=O)N2CCS(=O)(=O)CC2)s1` (stereo unspecified), the cytotoxicity at 70.5 h is -1.34%.

`CCn1nc(C)c(CNC(=O)NCC(C)(O)c2ccc(C)o2)c1C` (stereo unspecified): the cytotoxicity at 70.5 h is -13.6%. For `COC(=O)COc1c(F)cc(Br)cc1C(C)=O`, the cytotoxicity at 70.5 h is -2.7%. With `O=C1[C@H]2CN(Cc3ccccc3)C[C@H]2CN1CCN1CCCC1`, the cytotoxicity at 70.5 h was -8.49%. The value for `CCc1noc(CS(=O)(=O)Cc2ccccc2Cl)n1` was -6.3%; that for `CNc1ncccc1CN1CCN2CCN(C)CC2C1` (stereo unspecified) was -7.61%. `Cc1n[nH]c(C)c1NC(=O)c1cccc(OCC(F)(F)F)n1`: the cytotoxicity at 70.5 h is -10.8%.

For `O=C1C[C@H]2CC[C@@H](CN1)N2C(=O)CCCc1ccc(Cl)cc1`, the cytotoxicity at 70.5 h is -7.24%.

As to `CC(C)(C)c1ncc(C(=O)N2CCN(C(=O)c3ccc[nH]3)CC2)c(O)n1`, the cytotoxicity at 70.5 h was -2.76%. The value for `CC(CO)NC(=O)c1ccc2[nH]/c(=N\S(C)(=O)=O)sc2c1` (stereo unspecified) was -3.5%; that for `CCn1cc(-c2c(C)c(C3CCOC(C)(C)C3)nc(N)c2C#N)cn1` (stereo unspecified) was 9.87%.

For the compound `O=C(CCN1CCNCC1)N1CCC2(CC1)c1ccccc1CC2O` (stereo unspecified), the cytotoxicity at 70.5 h was -6.68%. Consider `COCCNC(=O)N1CC(Cc2ccccc2F)C1`, for which the cytotoxicity at 70.5 h is -4.03%.

On to `Cc1nc(CN(C)C2CCN(CCn3cc(C#N)cn3)C2)no1` (stereo unspecified), for which the cytotoxicity at 70.5 h stood at 8.59%. Turning to `CN(C)C(=O)C1(C)CN(Cc2cn(C)c3ccc(F)cc23)CCO1` (stereo unspecified), the cytotoxicity at 70.5 h amounted to 9.86%. Regarding `O=C(c1ccncc1)N1CCCN(Cc2nnc(C3CC3)o2)CC1`, the cytotoxicity at 70.5 h was -2.96%. On to `COc1cc(Cl)ccc1CNC(=O)N(C)C(C)CS(C)(=O)=O` (stereo unspecified), for which the cytotoxicity at 70.5 h is -7.57%. With `CN(C)C(=O)CN1CCC2(CCN(S(=O)(=O)C3CC3)CC2)C1=O`, the cytotoxicity at 70.5 h is -11.2%.

Regarding `O=C(O)CCNC(=O)C1(c2cccc(Br)c2)CCOCC1`, the cytotoxicity at 70.5 h is -0.861%. In the case of `Cc1nn(C)cc1CN1CCCC(n2c(=O)oc3ccc(Cl)cc32)C1` (stereo unspecified), the cytotoxicity at 70.5 h worked out at 46.8%. For `CCOc1ccccc1N(C)Cc1nccn1C`, the cytotoxicity at 70.5 h came out at 4.63%. For `CCN(CCNCc1cccc(C#N)c1)C1CC1`, the cytotoxicity at 70.5 h is 10.9%. As to `Cc1noc(C)c1-c1cncc(C2CCCN2Cc2nccs2)n1` (stereo unspecified), the cytotoxicity at 70.5 h is -9.87%. Take `CCn1c(=O)n(CCC(=O)N(C)Cc2ccc(C)o2)c2ccccc21`: the cytotoxicity at 70.5 h was -4.18%.

As for `Cc1cc(C)c(S(=O)(=O)Nc2cccc3c2OCCO3)cc1C(=O)O`, the cytotoxicity at 70.5 h was -27.2%. Turning to `Cc1cc(CN2CC[C@H]3OCC[C@@]3(C(=O)NC(C)C)C2)no1`, the cytotoxicity at 70.5 h was determined as 3.85%.
